Results as given in paper PMC3289519 (Bioorganic & medicinal chemistry letters, 2012).

Tests used:
[1] = tested on: Toxo/CpIMPDH, strain that depends on CpIMPDH; format: cell-based, Toxoplasma gondii; conditions: in words
human IMPDH1 = conditions: human IMPDH1, no detectable activity; cited from earlier work
human IMPDH2 = conditions: human IMPDH2, no detectable activity; cited from earlier work
C. parvum = conditions: anticryptosporidial activity, literature values; cited from earlier work

Row | Compound | activity against T. gondii/CpIMPDH [1] | other results
1 | O=C(Cn1c(-c2nccs2)nc2ccccc21)Nc1ccc(Br)cc1 [Compound C64] | sub-micromolar | –
2 | O=C(Cn1c(-c2nccs2)nc2ccccc21)Nc1ccc2ccccc2c1 [Compound C97] | sub-micromolar | –
3 | COc1ccc(NC(=O)Cn2c(-c3cscn3)nc3ccccc32)cc1 [C] | – | IC50 (human IMPDH1): > 50 µM; IC50 (human IMPDH2): > 50 µM
4 | O=C(Cn1c(-c2cscn2)nc2ccccc21)Nc1ccc2ccccc2c1 [Compound C90] | sub-micromolar | –
5 | O=C(Cn1c(-c2ccccn2)nc2ccccc21)Nc1ccc2ccccc2c1 [Compound C91] | sub-micromolar | –
6 | O=C(Cn1c(-c2nccs2)nc2ccccc21)Nc1ccc(Cl)c(Cl)c1 [Compound C84] | sub-micromolar | –
7 | NC[C@@H]1O[C@H](O[C@H]2[C@@H](O)[C@H](O[C@@H]3[C@@H](O)[C@H](N)C[C@H](N)[C@H]3O[C@H]3O[C@H](CO)[C@@H](O)[C@H](O)[C@H]3N)O[C@@H]2CO)[C@H](N)[C@@H](O)[C@@H]1O [paromomycin] | – | EC50 (C. parvum): 65 to 130 µM
